Results: publication PMC5423902, “CXCL9-Derived Peptides Differentially Inhibit Neutrophil Migration In Vivo through Interference with Glycosaminoglycan Interactions” (Frontiers in Immunology, 2017)

What was measured:
[1] = Isothermal fluorescence titration (IFT), HS; type: binding; conditions: for affinity for HS: IFT, both COOH-terminal peptides compared
Method: (§1) To study the interaction between CXCL9(74-93) and GAGs, titration experiments were performed as described by Gerlza et al. ([46]) using TAMRA-labeled synthetic CXCL9(74-93), TAMRA-labeled synthetic CXCL9(74-103), HS (Iduron BN1, Manchester, UK), low molecular weight heparin (LMWH; Iduron BN5), and chondroitin sulfate (CS; Carbosynth, Compton, UK).

[2] = system: CXCL1(1-72) binding to heparan sulfate (HS); assay: Competition with CXCL1 for binding to immobilized HS; set-up: species or system murine; conditions: n ≥ 3, Figure 6A; for reduction of CXCL1 binding to HS: mean; for maximum inhibition of CXCL1 binding to HS: maximum achieved
Method: (§2) The ability of the COOH-terminal peptides of CXCL9 and CXCL4 to compete for GAG binding with the inflammatory chemokines CXCL8 and CXCL1 was evaluated on heparin-binding plates [BD Biosciences or produced by Jason Whittle (School of Engineering/Future Industries Institute, University of South Australia, Australia)] ([42], [47]). In brief, GAGs (heparin, HS, and CS; Iduron; 25 µg/ml) were coated overnight at room temperature. Dilutions of COOH-terminal CXCL9 or CXCL4 peptide combined with recombinant human CXCL8(1-77) or recombinant murine CXCL1(1-72) (Peprotech, Rocky Hill, NJ, USA) were added in duplicate and incubated for 2 h at 37°C. Subsequently, bound CXCL8 or CXCL1 was detected with biotinylated polyclonal rabbit anti-human CXCL8 or biotinylated polyclonal goat anti-mouse CXCL1 (Peprotech) and horse radish peroxidase-labeled streptavidin. Finally, the peroxidase activity was quantified at 450 nm.
Competition between CXCL1 and COOH-terminal CXCL9 peptides for binding to immobilized heparan sulfate (HS) (A) and chondroitin sulfate (CS) (B) was performed. […] Bound CXCL1 was detected with biotinylated polyclonal goat anti-mouse CXCL1 antibodies. The mean (± SEM) percentage inhibition of CXCL1 binding to GAGs is indicated on the y-axis (n ≥ 3). Statistical comparison of the different competitors with CXCL9(74–103) was performed using the Mann–Whitney U-test.

[3] = system: CXCL8-induced neutrophil migration; assay: CXCL8-induced neutrophil migration to the peritoneal cavity; type: in vivo, mouse (NMRI); conditions: for neutrophils in the peritoneal cavity upon CXCL8: significant; for neutrophils in the peritoneal cavity upon CXCL8 / percentage of neutrophils in the peritoneal cavity upon CXCL8: n ≥ 5
Method: In vivo neutrophil extravasation to the peritoneal or the knee cavity was examined, respectively, by intraperitoneal or intra-articular injection, of endotoxin-free recombinant CXCL8(1-77) (PeproTech) or vehicle (PBS) in female NMRI or C57BL/6 mice, as described previously ([42], [48]). Simultaneously, synthetic CXCL9 peptide was co-injected either intraperitoneally or injected intravenously. After 2 h (peritoneal cavity) or 3 h (knee cavity), mice were sacrificed. The peritoneal cavity was washed with saline enriched with 2% FCS and 20 U/ml heparin and total leukocyte counts were determined. For the preparation of cytospins, 10^5 cells were used and absolute number and percentage of neutrophils in the lavages were determined in duplicate independently by two researchers by differential microscopic counting. The cells present in the tibiofemoral articulation were harvested by washing the cavity with 10 µl of 3% (w/v) bovine serum albumin in PBS and diluted in 90 µl of 3% (w/v) bovine serum albumin in PBS. The number of total leukocytes was determined by counting leukocytes in a Neubauer chamber after staining with Turk’s solution. Differential counts were obtained from cytospin preparations by evaluating the percentage of each leukocyte type on a slide stained with May-Grunwald-Giemsa solution.
Figure 4 The COOH-terminal peptides of CXCL9 inhibit CXCL8-induced neutrophil migration to the peritoneal cavity. CXCL8(1-77) was injected into the peritoneal cavity of NMRI mice (n ≥ 5) simultaneously with an intraperitoneal (A) or intravenous (B,C) injection of CXCL9(74-103) or CXCL9(74–93). The number of neutrophils in the peritoneal cavity, 2 h post injection, were evaluated by differentially counting the leukocyte subtypes on Hemacolor-stained cytospins. The neutrophil counts are shown for every individual mouse, and the horizontal lines denote the median percentage. To detect statistically significant differences, the Mann–Whitney U-test was carried out (*p < 0.05; **p < 0.01; ***p < 0.005).

[4] = system: CXCL8(1-77) binding to heparan sulfate (HS); assay: Competition with CXCL8 for binding to immobilized HS (ELISA-like); set-up: species or system human; conditions: CXCL8(1-77) 0-300 nM, n ≥ 4, Figure 3B
Method: as §2
Figure 3 CXCL9(74-93) competes with CXCL8 for binding to heparin, heparan sulfate (HS), and cellular glycosaminoglycans (GAGs). Competition between CXCL8 and COOH-terminal CXCL9 or CXCL4 peptides for binding to immobilized heparin (A) or HS (B) and to Chinese hamster ovary (CHO) cells (C) was performed. […] Bound CXCL8 was detected with biotinylated anti-human CXCL8 antibodies. (C) Binding of NH2-terminally biotinylated CXCL8(1-77) (300 nM) to CHO cells in the presence or absence of an excess CXCL9 peptide was detected by streptavidin-allophycocyanin and flow cytometry. The mean (± SEM) percentage inhibition of binding of CXCL8(1-77) to heparin, HS or cellular GAGs is indicated on the y-axis (n ≥ 4). Statistical comparison of the different competitors with CXCL9(74–103) was performed using the Mann–Whitney U-test (*p < 0.05).

[5] = Isothermal fluorescence titration (IFT), CS; type: binding; conditions: for Kd: isothermal fluorescence titration, TAMRA-labeled peptide, read-out: affinity (KD) for CS
Method: as §1

| Substance | affinity for HS [1] | Kd ([1]; isothermal fluorescence titration, TAMRA-labeled peptide, biphasic binding isotherm, fit of only the initial high-affinity phase) [nM] | reduction of CXCL1 binding to HS ([2]; 10-fold molar excess) [%] | maximum inhibition of CXCL1 binding to HS [2] [%] | competition for CXCL1 binding to HS [2] | neutrophils in the peritoneal cavity upon CXCL8 ([3]; 66 µg peptide i.v. (equal molar amount to 108 µg CXCL9(74-103)), CXCL8 i.p., control 192 × 10^4, Figure 4C) | percentage of neutrophils in the peritoneal cavity upon CXCL8 ([3]; 66 µg peptide i.v., CXCL8 i.p., control 19%, Figure 4C) [%] | potency against CXCL8 relative to CXCL9(74-103) ([3]; i.v., peritoneal model, Figure 4C) | inhibition of CXCL8 binding on HS-coated plates [4] | Kd [5] [nM] | reduction of CXCL1 binding to HS ([2]; threefold molar excess compared to CXCL1) [%] | reduction of CXCL8-induced neutrophil recruitment to peritoneal cavity ([3]; 12 µg peptide i.p., Figure 4A) | reduction of CXCL8-induced neutrophil recruitment to peritoneal cavity ([3]; 36 µg peptide i.p., Figure 4A) | neutrophil influx to peritoneal cavity upon CXCL8 ([3]; 36 µg peptide i.v., not significant, Figure 4B) | neutrophils in the peritoneal cavity upon CXCL8 ([3]; 108 µg peptide i.p. co-injected with 1 µg CXCL8 i.p., NMRI, 2 h, CXCL8 alone about 142 × 10^4, Figure 4A) | percentage of neutrophils in the peritoneal cavity upon CXCL8 ([3]; 108 µg peptide i.p. co-injected with 1 µg CXCL8 i.p., NMRI, 2 h, Figure 4A) [%] | reduction of CXCL8-induced neutrophil migration to peritoneal cavity ([3]; lower doses i.v., Figure 4B) | percentage of neutrophils in the peritoneal cavity upon CXCL8 ([3]; peptide i.v. (highest dose tested, dose not given), CXCL8 i.p., control 16.5%, Figure 4B) [%] | neutrophils in the peritoneal cavity upon CXCL8 ([3]; peptide i.v. (highest dose tested, dose not given), CXCL8 i.p., control 148 × 10^4, Figure 4B) | relative affinity for CS ([5]; compared to CXCL9(74-93)) |
| --- | --- | --- | --- | --- | --- | --- | --- | --- | --- | --- | --- | --- | --- | --- | --- | --- | --- | --- | --- | --- |
| 74KKKQKNGKKHQKKKVLKVRK93 [CXCL9(74-93), COOH-terminal peptide of CXCL9 lacking the 10 COOH-terminal amino acids of CXCL9(74-103)] | high and comparable affinity | 1 | 39 | 52 | less potent competitor than CXCL9(74-103) | 65 × 10^4 neutrophils | 8.25 | equally potent inhibitor of CXCL8 than CXCL9(74-103) | equally efficient in inhibiting CXCL8 binding | 296 ± 19 |  |  |  |  |  |  |  |  |  |  |
| 74KKKQKNGKKHQKKKVLKVRKSQRSRQKKTT103 [CXCL9(74-103), COOH-terminal peptide of CXCL9] | high and comparable affinity |  |  | 72 |  |  |  |  | equally efficient in inhibiting CXCL8 binding | 68 ± 4.6 | 43 | failed to reduce CXCL8-induced neutrophil recruitment | failed to reduce CXCL8-induced neutrophil recruitment | a trend toward a lower neutrophil influx | 45 × 10^4 neutrophils | 6.6 | not able to reduce the neutrophil migration significantly | 10.1 | 81 × 10^4 neutrophils | about fourfold higher affinity for CS |
